# Test results: patent US20160106747A1, “TREATING POSTOPERATIVE MECHANICAL STRESS WITH AN ECTOINE” (Bitop AG, priority 2008, published 2016)
# “Also recorded” adds a separate entry of the source.
# Assays:
# [1] = test system: rats with TNBS-induced enteritis; assay: Enteritis induced in rats with trinitrobenzol sulfonic acid (TNBS), oral ectoine; type: in vivo
# Experimental: For the purpose of closer investigation an animal model involving rats was prepared to induce enteritis by administering 10 mg/kg of trinitrobenzol sulfonic acid in 50% ethanol using a light ether anesthesia. Lesions developed which were examined macroscopically four days later. Ectoine was administered orally in various doses (30 to 300 mg/kg) for one week before the rats were given TNBS and four days thereafter.
# [2] = test system: Small intestine segments of rats; assay: Cold ischemic storage (18 h, 4° C.) of rat small intestine segments in POLYSOL with or without ectoine, then in vitro reperfusion; conditions: for LDH liberation: ectoine (5 mg/kg) added to POLYSOL, 18 h at 4° C.
# Experimental: Small intestine segments of rats were removed under standard conditions and immediately irrigated with a cold common salt solution and subsequently with a POLYSOL solution (supplied by Doorzand Medical Innovations, Amsterdam/NL). The small intestine segments removed were kept ischemically in 50 ml of nutrient solution at 4° C. for 18 hours; in half of these cases ectoine (5 mg/kg) was added to the POLYSOL solution. Following this storage time at 4° C. reperfusion of the small intestine segments took place in vitro at 37° C. using a modified KHB medium (5% Dextran 78, 0.95% KHB, 0.37 g/L CaCl2, 2 g/L glucose, 0.6 g/L dexamethasone, 70 mg/L atropine and 0.21% sodium bicarbonate). For oxygen supply purposes a mixture of 95% O2 and 5% CO2 was used. The partial pressure of the oxygen was constantly kept at more than 500 mm/hg. When reperfusion had been completed all tissue samples were deep-frozen at −80° C. in liquid nitrogen and examined to ascertain their condition, the lactate dehydrogenase (LDH) liberation and nitrite liberation as a measure of NO. Generally speaking, the formation of NOx is an indicator for (oxidative) stress to which a tissue sample is subjected.
structure (smiles),measurement,setting,value
"CC1=N[C@H](C(=O)O)CCN1 [ectoine, (4S)-2-methyl-1,4,5,6-tetrahydropyrimidine-4-carboxylic acid]",extent of the lesions (macroscopic examination),"[1]; TNBS 10 mg/kg in 50% ethanol, ectoine oral 30 to 300 mg/kg for one week before TNBS and four days thereafter, lesions examined four days later",capable of alleviating the extent of the lesions
same,histopathological examination of the large intestine,[1]; TNBS enteritis,protective effect of ectoine could be confirmed
same,glutathione level in the large intestine,"[1]; TNBS enteritis, oral ectoine",caused the glutathione level in the large intestine to go down
same,myeloperoxidase activity,"[1]; TNBS enteritis, oral ectoine",prevented changes of the myeloperoxidase activity
same,"level of mediators (IKAM-1, DNFα, IL-1β, IL-10, LTB4, PGE2)","[1]; in the blood and in the tissue of the large intestine, TNBS enteritis",prevented changes of the level of various mediators
same,dose giving the maximum effect on lesions,"[1]; oral, doses of 30 to 300 mg/kg tested",100 mg/kg
same,effect compared with reference active agent sulfasalazine,"[1]; sulfasalazine 300 mg/kg as reference, TNBS enteritis",comparable to that of sulfasalazine
same,LDH liberation,[2]; after 15 min reperfusion,8.8+/−3.42 U/I
same,LDH liberation,[2]; after 30 min reperfusion,25.4+/−8.2 U/I
same,NOx− formation,[2]; ectoine-doped POLYSOL samples after reperfusion,0.325 ± 1.05 mmol/L
same,condition of the microvilli (microscopic examination),"[2]; tissue samples after 30-minute reperfusion, compared with samples in POLYSOL only",much better condition; also recorded: considerably improved condition of the microvilli
